Experimental data published in patent US8853227B2, “Methotrexate adjuvants to reduce toxicity and methods for using the same” (Tosk, Incorporated, priority 2008, dated 2014).

What was measured:
[1] = system: AS283 human lymphoma xenografts; experiment: Mouse Study V (xenograft with AS283 implants); format: in vivo, C.B.-17 SCID mice
Protocol: Six-week-old male SCID mice were implanted with fragments of AS283 human lymphoma tumors. The tumors were allowed to reach 75-198 mg in weight (75-198 mm^3 in size) before the start of treatment. The experiment consisted of two treatment groups and one vehicle-treated control group, with ten animals per group, for a total of 30 mice on the first day of treatment.
(§1) TK-112690 was administered by ip injection [twice every 2 days for 5 injections with six hour interval (q6h×2, q2d×5)] at a dosage of 30 mg/kg/injection. MTX was administered by ip injection q2d×5 at a dosage of 5.0 mg/kg/injection three hours after the TK-112690 injection. The control group was treated with both vehicles, which were administered on the corresponding compound schedules.
Six-week-old male C.B.-17 SCID mice were acclimated in the laboratories for seven days prior to experimentation. Thirty-to-forty mg fragments of AS283 human lymphoma tumor were implanted sc in mice near the right flank using a 12-gauge trocar needle and allowed to grow. Tumors were allowed to reach 75-198 mg in weight (75-198 mm^3 in size) before the start of treatment. A sufficient number of mice were implanted so that tumors in a weight range as narrow as possible were selected for the trial on the day of treatment initiation (day 8 after tumor implantation). Those animals selected with tumors in the proper size range were assigned to the various treatment groups so that the median tumor weights on the first day of treatment were as close to each other as possible (162 mg for all groups). The experiment consisted of two treatment groups and one vehicle-treated control group with ten animals per group for a total of 30 mice on the first day of treatment.
A 15 mg/mL solution of TK-112690 was prepared daily by dissolving the compound in 100% DMSO (by vortexing as needed) and then adding PBS for a 3 mg/mL dosing solution. The final composition of the vehicle was 20% DMSO/80% PBS. The 25 mg/mL stock solution of MTX for injection was diluted each day of injection with saline to a 0.75 mg/mL dosing solution. Both compounds were administered ip by exact body weight using an injection volume of 0.1 mL for every 10 g of body weight.
as §1, with “intraperitoneal (ip)” for “ip”
The sc tumors were measured and the animals were weighed thrice weekly starting the day of the first treatment. Tumor volume was determined by caliper measurements (mm) and using the formula for an ellipsoid sphere: L×W^2/2=mm^3, where L and W refer to the larger and smaller perpendicular dimensions collected at each measurement. This formula is also used to calculate tumor weight, assuming unit density (1 mm^3=1 mg).
The study was terminated twenty one days after tumor implantation. Any animal found moribund or any animal whose tumor reached 4,000 mg, ulcerated or was sloughed off was euthanized prior to study termination.

[2] = Mouse Study II (protection from loss of mucosal permeability, oral iodixanol in plasma); format: in vivo, C57BI/6 female mice; settings: day 7
Protocol: C57BI/6 female mice (n=7) were treated intraperitoneal (ip) with 100 mg/kg MTX on days 2, 3 and 4 with and without 60 mg/kg TK-112690 (ip) three hours before, and after, MTX injections. On day 7, mucosal barrier injury was estimated by measuring plasma concentrations of orally administered iodixanol determined by HPLC using UV detection (Boxplots with minimum and maximum values (black lines). Orally administered iodixanol is not absorbed absent an increase in mucosal permeability. Group 1=saline control, Group 2=MTX and Group 3=MTX+TK-112690.
The aim of this study was to evaluate the ability of a representative a 2,2′-anhydropyrimidine test article to mitigate MTX-induced loss of mucosal permeability. C57BI/6 female mice (n=7) were treated (ip) with 100 mg/kg MTX on days 2, 3 and 4 with and without 60 mg/kg TK-112690 (ip) three hours before, and after, MTX injections. On day 7, mucosal barrier injury was estimated by measuring plasma concentrations of orally administered iodixanol determined by HPLC using UV detection. Orally administered iodixanol is not absorbed absent an increase in mucosal permeability.

[3] = system: CCRF-CEM human tumors; experiment: Mouse Study IV (xenograft with CCRF-CEM implants); format: in vivo, SCID mice; settings: MTX 7.5 mg/kg/injection + TK-112690 30 mg/kg ±3 hrs ip; day 27; p=1
Protocol: In this study, n=10 SCID mice per dose group were treated with CCRF-CEM human tumors and the tumors allowed to grow to a size of approximately 100 mg. Then the animals were treated by intraperitoneal (ip) injection with either control 20% DMSO/80% PBS (1×/day)×5 days (Group 1), MTX 7.5 mg/kg/injection (1×/day)×5 days (Group 2) or MTX 7.5 mg/kg/inj. (1×/day)×5 days+TK-112690 30 mg/kg/inj.±3 hrs (group 3). The Figure provides tumor sizes in each of the 3 groups on Day 27 of the study.
A xenograft study was performed to analyze the effect of TK-112690. administration on the in vivo efficacy of MTX against a human cancer. Human CCRF-CEM (T-ALL) cells were implanted subcutaneously into SCID mice. Tumor volumes were recorded on a regular basis, and once tumors had become established, treatment was given. […] All treatments were given ip, and TK-112690 was give 3 hours prior to and 3 hours after MTX administration.

[4] = MTX alone 5.0 mg/kg/injection ip q2d×5, day 21
[5] = TK-112690 30 mg/kg/injection combined with MTX 5.0 mg/kg/injection, day 21

With `CN(Cc1cnc2nc(N)nc(N)c2n1)c1ccc(C(=O)N[C@@H](CCC(=O)O)C(=O)O)cc1` [MTX, N-[4-[[(2,4-diamino-6-pteridinyl)methyl]methylamino]benzoyl]-L-glutamic acid, reference compound] the “median tumor weight value, % of the control on day 21” value ([1]; MTX alone 5.0 mg/kg/injection ip q2d×5) was 2.8%, the “median tumor weight value smaller than the median at the start of treatment (162 mg)” value [1, 4] was 40.0 mg and the “median tumor weight value smaller than the median at the start of treatment (162 mg), %” value [1, 4] was 24.7%. For the same compound, the “mucosal barrier injury (increased plasma iodixanol)” value ([2]; 100 mg/kg MTX ip on Days 2, 3 and 4) was “experienced mucosal barrier injury”.

For `Cc1cn2c(nc1=O)O[C@H]1[C@H](O)[C@@H](CO)O[C@H]12` [TK-112690, 2,2′-anhydro-5-methyluridine], the “tumor volume, MTX+TK-112690 versus MTX” value [3] was “not significantly different”, the “median tumor weight value smaller than the median at the start of treatment (162 mg)” value [1, 5] was 9.0 mg and the “median tumor weight value smaller than the median at the start of treatment (162 mg), %” value [1, 5] was 5.6%. The “median tumor weight value, % of the control on day 21” value ([1]; TK-112690 30 mg/kg/injection ip (q6h×2, q2d×5) combined with MTX 5.0 mg/kg/injection) was 3.5%, the “tumor volumes, MTX+TK-112690 versus MTX” value ([1]; day 21, p=1.0) was “no statistical difference” and the “protection from MTX-induced mucosal barrier injury (plasma concentration of orally administered iodixanol)” value ([2]; 60 mg/kg ip 3 h before and after 100 mg/kg MTX, days 2, 3, 4, p<0.05) was “protected mice from MTX-induced mucosal barrier injury”.
